The values below are quoted from earlier work in US20230111712A1, “STABLE REACTIVE COMPOSITIONS FOR BIOCONJUGATION, PROBES, AND PROTEIN LABELING” (ARIZONA BOARD OF REGENTS ON BEHALF OF THE UNIVERSITY OF …, priority 2020, published 2023).

For this data set the following is noted: reported value.

On to `CCCN` [propyl ammonium, propyl amine], for which the pKa (as a rule, the pH at which an ionisable group is half protonated) was 10.5.
